Results published in US8217071B2, “Use of inhibitors of the degradation of p27, in particular Argyrin and derivatives thereof, for the treatment of proliferative diseases” (Helmholtz Zentrum für Infektionsforschung GmbH, priority 2007, dated 2012).
Numbered stars: 1 amine (or outer) side, 2 acyl side, 3 side chain; on linkers, the order of the positions; unused ones are H or OH. Square brackets hold non-standard residues; d marks the D form. Peptide text beside a SMILES is read from it. dAla(ψthiazole) = C[C@@H](N[*:1])c1nc(C(=O)[*:2])cs1; Trp(4-OMe) = COc1cccc2[nH]cc(C[C@H](N)C(=O)O)c12; Dha = C=C(N)C(=O)O; Sar = CNCC(=O)O

Tests used:
[1] = system: SW480 colon carcinoma xenotransplant tumours; test: SW480 xenotransplant tumours in nu/nu mice; format: in vivo, mouse; details: for proteasome activity in the primary tumour tissue: single dose
Description: At the indicated timepoints 20S proteasome was isolated from peripheral blood cells and the activity of the different proteasome subunits was determined as described (FIG. 1d). b) SW480 colon carcinoma cell lines mixed with matrigel were injected under the skin of nu/nu mice to establish xenotransplant tumours. Treatment with Argyrin A or bortezomib was started when these tumours reached a volume of 200 mm^3. […] The activity of the respective proteasome subunits was determined as described previously (FIG. 1d). e) Determination of the number of p27^kip1 positive cells in tumour tissue after Argyrin A treatment. The pictures show representative samples of immunohistochemical stainings for p27 in tumour tissues after 10 days of Argyrin A treatment. f) Detection of apoptotic cells in xenotransplanted tumours by TUNEL staining of tumour tissues after treatment with Argyrin A or bortezomib. At least 200 cells were counted on five independent sections to quantitate the number of apoptotic cells.
(§1) MTT assays were done as previously described (Sasse, F. et al. Argyrins, immunosuppressive cyclic peptides from myxobacteria. I. Production, isolation, physico-chemical and biological properties. J Antibiot (Tokyo) 55, 543-51 (2002)). TUNEL staining of tissue sections was performed on 10 micrometer sections which were deparafinised and treated as recommended by the manufacturer. (In Situ Cell Death Detection Kit, Fluorescein; ROCHE, Cat #11 684 795 910). Flow cytometric analysis of cultured cells was done using a Becton Dickinson fluorescence cytometer as previously described (Malek, N. P. et al. A mouse knock-in model exposes sequential proteolytic pathways that regulate p27^Kip1 in G1 and S phase. Nature 413, 323-7 (2001)). Analysis of the distribution of cells in the cell cycle and the sub-G1 fraction was done using Cell Quest software. A histone-associated-DNA-fragments ELISA was used to determine the number of apoptotic cells according to manufacturers instructions (Roche #11 774425001).
Proteasome assays using proteasome purified from cells or tissues were carried out in a 100 μL reaction volume containing 20 μg proteasome extract, 50 mmol/L EDTA and 60 μmol/L fluorogenic substrate (chymotrypsin-like (CT-L), trypsin-like (T-L) or caspase-like (C-L)) in ATP/DTT lysis buffer at 37° C. The assay buffer was supplemented with a final concentration of 0.05% SDS for the evaluation of the chymotrypsin-like activity and caspase-like activity. The rate of cleavage of fluorogenic peptide substrates was determined by monitoring the fluorescence of released amonomethylcoumarin using a Victor 1420 Multilabel counter (Wallac) at an excitation wavelength of 395 nm and emission wavelength of 460 nm over a period of 60 min.
1×10^7 SW480 cells or HCT116 cells (in 100 microliters DMEM medium and 100 microliters matrigel) were s.c. injected into the flanks of NMRI nu/nu mice. Tumours grew for approx. 18 days until they reached appropriate size (200 mm3). Tumour size was measured with a digital calliper and calculated with the help of the following formula: (Length×width2)*π/6. All experiments were done after review and in accordance with the animal rights and protection agencies of Lower Saxony, Germany.

[2] = system: mouse embryonic fibroblasts from p27^kip1 knockout mice; test: Apoptosis (sub-G1 fraction) by flow cytometry in p27 knockout MEF; format: cell-based; details: for apoptosis in p27 knockout MEF: sub G1 fraction
Text: (§2) Next the inventors tested whether the stabilization of p27 was indeed required for the apoptosis inducing function of Argyrin A or was merely a consequence of proteasome inhibition. For this the inventors treated immortalized mouse embryonic fibroblasts from p27^kip1 wildtype or knockout mice with Argyrin A or the proteasome inhibitor bortezomib and assayed cell cycle distribution and apoptosis by flow cytometry. […] These differences in sensitivity in response to Argyrin A treatment were not due to differences in the accumulation of other proteasomal substrates in p27 wildtype and knockout cells as p53 and p21 levels increased in both cell lines in response to Argyrin A (FIG. 6B). To extend this observation to human cancer cells the inventors reduced the levels of p27^kip1 in HeLa cells using p27^kip1 specific siRNA.
(§3) The results shown are the average numbers for six independent experiments. b+d) Wildtype (b) and p27 knockout (d) MEF were treated with Argyrin A or transfected with siRNAs specific for the β1, β2 or β5 subunit of the proteasome for 24 hours. The graphs show the remaining catalytic activity of the different proteasome subunits after Argyrin A or siRNA treatment compared to an untreated control (n=3). The western blots show the expression of the β1, β2 or β5 subunit of the proteasome in proliferating cells and after treatment with siRNAs for a representative experiment. c+e) Flow cytometric measurements of the number of apoptotic cells (sub-G1 fraction) after Argyrin A or siRNA treatment in wildtype (c) or p27 knockout (E) MEF. f) HeLa cells were treated with Argyrin A or siRNA against p27 or Argyrin A and siRNA against p27 for either 24 or 48 hours.
as §1

[3] = system: mouse embryonic fibroblasts from p27^kip1 wildtype mice; test: Apoptosis (sub-G1 fraction) by flow cytometry in p27 wildtype MEF; format: cell-based; details: for apoptosis in p27 wildtype MEF: sub G1 fraction
Text: as §2, §3, §1

SMILES	size of the xenotransplanted tumours ([1]; SW480, 0.15 mg/kg i.p. every three days)	apoptotic cell death, share of all tumor cells ([1]; SW480 xenograft, TUNEL staining) [%]	p27^kip1 in tumour tissue ([1]; SW480 xenograft, immunohistochemistry)	proteasome activity in the primary tumour tissue [1]	p27^kip1 knockout fibroblasts undergoing apoptotic cell death ([2]; after 60 hours of treatment)	apoptosis, share of all fibroblasts derived from p27 knockout mice ([2]; comparable levels of proteasome inhibition, 24 hours) [%]	apoptosis, share of all cells, wildtype fibroblasts ([3]; after 24 hours) [%]	apoptosis in p27 wildtype MEF [3]	apoptosis in p27 knockout MEF [2]	apoptosis in p27 knockout MEF ([2]; listed as Bortezomib)	apoptosis in p27 wildtype MEF ([3]; listed as Bortezomib)
C=C1NC(=O)[C@@H](C)NC(=O)CNC(=O)[C@H](Cc2c[nH]c3cccc(OC)c23)NC(=O)[C@H](Cc2c[nH]c3ccccc23)NC(=O)c2csc(n2)[C@@H](C)NC(=O)CN(C)C1=O [Argyrin A] (cyclo(W[Trp(4-OMe)]G[dA][Dha][Sar][dAla(ψthiazole)]))	significant reduction	> 60	induction	significant reduction	ten	5	38	induced apoptosis			
CC(C)C[C@H](NC(=O)[C@H](Cc1ccccc1)NC(=O)c1cnccn1)B(O)O [bortezomib, reference compound]				significant reduction				massive apoptosis	massive apoptosis	induced apoptosis	induced apoptosis
